Test results taken from PubChem BioAssay (NCI).
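Cells were grown in 96-well plates and exposed to each compound for 48 hours at five concentrations; endpoints were interpolated linearly between bracketing concentrations, or set to the highest concentration if not reached. GI50 marks 50% less growth. TGI is the concentration that stops growth completely.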

How the values were obtained:
Experiment in all cases: inhibition of tumour cell growth, NCI panel, 48 h
HOP-92 NSCLC = tested on: HOP-92 NSCLC
KM12 colon = tested on: KM12 colon
LOX IMVI melanoma = tested on: LOX IMVI melanoma
M14 melanoma = tested on: M14 melanoma
MALME-3M melanoma = tested on: MALME-3M melanoma
OVCAR-8 ovarian = tested on: OVCAR-8 ovarian
RPMI-8226 leukemia = tested on: RPMI-8226 leukemia
SK-MEL-5 melanoma = tested on: SK-MEL-5 melanoma
UACC-62 melanoma = tested on: UACC-62 melanoma
SR leukemia = tested on: SR leukemia

SMILES	TGI (HOP-92 NSCLC)	TGI (KM12 colon)	TGI (LOX IMVI melanoma)	TGI (M14 melanoma)	TGI (MALME-3M melanoma)	TGI (OVCAR-8 ovarian)	TGI (RPMI-8226 leukemia)	TGI (SK-MEL-5 melanoma)	TGI (UACC-62 melanoma)	GI50 (HOP-92 NSCLC)	GI50 (KM12 colon)	GI50 (LOX IMVI melanoma)	GI50 (M14 melanoma)	GI50 (OVCAR-8 ovarian)	GI50 (RPMI-8226 leukemia)	GI50 (SK-MEL-5 melanoma)	GI50 (UACC-62 melanoma)	GI50 (SR leukemia)	TGI (SR leukemia)	GI50 (MALME-3M melanoma)
Cc1cc(N(CCC#N)CCC#N)ccc1/C=C(\NC(=O)/C=C/c1ccccc1)NC(=O)Nc1ccccc1C	62 µM	> 100 µM	> 100 µM	> 100 µM	> 100 µM	> 100 µM	> 100 µM	> 100 µM	> 100 µM											
COc1ccc(-c2cnc(SCC(=O)c3c(C)n(C)n(-c4ccccc4)c3=O)n2-c2ccc(OC)cc2)cc1	> 50 µM	> 50 µM	> 50 µM	> 50 µM		> 50 µM	> 50 µM	> 50 µM	> 50 µM	> 50 µM	> 50 µM	46.5 µM	35.2 µM	> 50 µM	6.87 µM	22.3 µM	> 50 µM			
C[C@]12CC/C(=N\O)C[C@@H]1CC[C@@H]1[C@@H]2CC[C@]2(C)/C(=N/O)CC[C@@H]12	> 100 µM	47.4 µM	50.7 µM	55.2 µM		> 100 µM	52 µM	53.9 µM	> 100 µM	> 100 µM	20.9 µM	21.3 µM	23.7 µM	45.2 µM	15.9 µM	23.6 µM	35.6 µM	35 µM	> 100 µM	
C[C@]12CC[C@H](OC(=O)Cc3ccc(N(CCCl)CCCl)cc3)CC1CC[C@@H]1C2CC[C@]2(C)NC(=O)CCC12 (some centres undefined)	35.6 µM	25.5 µM	27.2 µM	28.8 µM	35.7 µM		23 µM	32.5 µM	21.4 µM											
COc1ccc(Nc2[nH]n(C3=Nc4ccccc4Sc4ccccc43)c(=O)c2C#N)cc1		11.3 µM	4.27 µM	9.64 µM	> 100 µM	> 100 µM	> 100 µM	1.48 µM	11 µM		1.64 µM	1.37 µM	2.49 µM	2.01 µM	1.59 µM	0.396 µM	1.21 µM	0.518 µM	> 100 µM	2.67 µM
O=S1(=O)OCc2ccccc21	> 100 µM	> 100 µM		> 100 µM	> 100 µM	> 100 µM	> 100 µM	> 100 µM	> 100 µM											
O=c1/c(=C/c2ccccc2O)sc2nc3ccccc3n12	> 100 µM		98.3 µM	> 100 µM	> 100 µM	> 100 µM	64.9 µM	> 100 µM	80.6 µM										61.3 µM	
CCCCCCCC(=O)SCC/C=C/[C@@H]1CC(=O)NCc2cccc(n2)C2=N[C@@](C)(CS2)C(=O)N[C@@H](C(C)C)C(=O)O1	0.52 µM	5.95 µM	0.193 µM	> 33.3 µM		> 33.3 µM	> 33.3 µM	0.115 µM	0.128 µM	0.0841 µM	0.0719 µM	0.0501 µM	0.0348 µM	0.0253 µM	0.193 µM	0.0271 µM	0.0175 µM	0.0623 µM	> 33.3 µM	
COc1cccc(-c2cc(=O)c3cc(C)c(C)c(C(=O)O)c3o2)c1	> 100 µM	> 100 µM	> 100 µM	> 100 µM	> 100 µM	> 100 µM	> 100 µM	> 100 µM	> 100 µM											
Cc1ccc2oc(=O)cc(CC(=O)O)c2c1	> 100 µM	> 100 µM	> 100 µM	> 100 µM	> 100 µM	> 100 µM	> 100 µM	> 100 µM	> 100 µM											
Oc1ccccc1/C=N/Nc1nc2ccccc2s1	19.5 µM	> 100 µM	> 100 µM		> 100 µM	> 100 µM	> 100 µM	> 100 µM	> 100 µM	0.74 µM	3.1 µM	4.3 µM		12 µM	4.7 µM	7.36 µM	8.97 µM	7.71 µM	> 100 µM	30 µM
N=C(N)c1ccc(CS(=O)(=O)F)cc1	> 100 µM	> 100 µM	> 100 µM	> 100 µM	> 100 µM	> 100 µM		> 100 µM	> 100 µM	> 100 µM	> 100 µM	81.2 µM	> 100 µM	> 100 µM		> 100 µM	> 100 µM			> 100 µM
CC1=CC[C@@H]2[C@@H](CC[C@@]2(C)O)C(C)(C)[C@H]1CC[C@@H]1[C@@]2(C)CC[C@@H](O)C(C)(C)O[C@@H]2CC[C@]1(C)O	37.1 µM		29.8 µM	61.9 µM			52.3 µM	27.8 µM	31.9 µM										42.8 µM	
CCOC(=O)C1Nc2ccc([N+](=O)[O-])cc2[C@H]2OCC[C@@H]12 (some centres undefined)		> 100 µM	> 100 µM	> 100 µM	> 100 µM	> 100 µM		> 100 µM	> 100 µM											
Nc1nc2ccccc2c2[nH]c3ccccc3c12		3.26 µM	2.28 µM	2.95 µM	3.19 µM	2.16 µM		3.01 µM	27.3 µM		1.04 µM	1.05 µM	1.6 µM	0.985 µM		1.64 µM	13.6 µM	0.64 µM	4.8 µM	1.61 µM
Cc1cc(NCCCNc2ccnc3cc(Cl)ccc23)nc(Nc2ccc(C(=O)N3CCCCC3)cc2)n1		11.6 µM	3.57 µM	4.06 µM	4.15 µM	12.4 µM	5.66 µM	3.34 µM	3.81 µM		2.96 µM	1.82 µM	2.12 µM	3.61 µM	2.27 µM	1.93 µM	2.02 µM	1.72 µM	4.24 µM	2.34 µM
CC(C)(C)c1cc(O)c2c(c1O)C(=O)CCC2	21.1 µM		> 100 µM	> 100 µM		> 100 µM	54.1 µM	39.2 µM	80.5 µM											
CN(C(=N)c1ccccc1)c1ccccc1	> 100 µM	> 100 µM	> 100 µM	> 100 µM		> 100 µM	> 100 µM	> 100 µM	> 100 µM											
